Assay results published in patent publication US20230295212A1 (ROME Therapeutics, Inc., priority 2022, published 2023).

Columns and labels:
[1] = test system: interferon-stimulated gene (ISG) response; assay: In vivo decitabine challenge model in C57BL/6 mice (ISG response); design: species or system mouse; conditions: decitabine i.p. 5 mg/kg
Protocol: Exemplary compounds were tested for ability to alter the interferon-stimulated gene (ISG) response in C57BL/6 mice treated with decitabine. Assay procedures and results are described below. Twenty 9-11 week old C57BL/6 mice were acclimated to the lab for at least 5 days. Compound 23 was prepared in a 0.5% methylcellulose solution for p.o. administration. Decitabine (Sigma-Aldrich) was dissolved in sterile PBS (pH 7.4) and dosed within 30 minutes of preparation of the solution. Doses of both the compound and decitabine were administered once a day, every day from Day 0 to Day 4. On Day 0, mice were split into five groups of five mice and given their first dose of decitabine (i.p., 5 mg/kg) and compound 23. Dosing groups were: Decitabine and compound 23 were administered daily from Day 0 to Day 4. All mice were euthanized 1 hour after the last dose administration on Day 4. Spleens, liver, and terminal colon were collected, along with plasma from each animal. The fold changes in interferon-stimulated gene (ISG) expression was calculated by first normalizing to GAPDH gene using the Delta CT method. The CT (gene of interest)—CT (reference gene) was calculated to generate a delta CT for all samples. The fold change was then calculated by taking the Log2(Delta CT(control)—Delta CT (experimental). The control in this example was the PBS control animal group. The Taqman duplex assay was used to determine levels of GAPDH v. IFIT2. Twenty 9-11 week old C57BL/6 mice were acclimated to the lab for at least 5 days. Compound 2 was prepared in 20% PEG400 in PBS (final pH 4.5) for p.o. administration. Decitabine (Sigma) was dissolved in sterile PBS (pH 7.4) and dosed within 30 minutes of preparation of the solution. Doses of both Compound 2 and decitabine were administered once a day. On Day 0, mice were split into five groups of five mice and given their first dose of decitabine and Compound 2. […] The fold changes in interferon-stimulated gene (ISG, specifically IRF7 and MX1) expression was calculated by first normalizing to GAPDH gene using the Delta CT method. […]

[2] = molecular target: T1, LINE1 reverse transcriptase (Homo sapiens, UniProt O00370); assay: Stable artificial-intron Cis LINE1 reporter assay (HeLa Tet-On 3G, Firefly luciferase); format: cell-based; conditions: HeLa L1 artificial-intron reporter cells, doxycycline 500 ng/mL, 72 h, class symbols
T1 construct: expressed in transfected cells; host or cells: HeLa Tet-On 3G (Takara, cat no 631183)
Outline: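 HeLa Tet-On 3G clone stably carrying a bi-directional doxycycline-inducible artificial-intron LINE1 reporter, plated at 8,000 cells/well onto serially diluted compound. Expression induced with 500 ng/mL doxycycline (final); Firefly luciferase luminescence (Dual-Glo) read 72 h after plating as LINE1 activity.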

T1 sequence (O00370 whole entry, looked up): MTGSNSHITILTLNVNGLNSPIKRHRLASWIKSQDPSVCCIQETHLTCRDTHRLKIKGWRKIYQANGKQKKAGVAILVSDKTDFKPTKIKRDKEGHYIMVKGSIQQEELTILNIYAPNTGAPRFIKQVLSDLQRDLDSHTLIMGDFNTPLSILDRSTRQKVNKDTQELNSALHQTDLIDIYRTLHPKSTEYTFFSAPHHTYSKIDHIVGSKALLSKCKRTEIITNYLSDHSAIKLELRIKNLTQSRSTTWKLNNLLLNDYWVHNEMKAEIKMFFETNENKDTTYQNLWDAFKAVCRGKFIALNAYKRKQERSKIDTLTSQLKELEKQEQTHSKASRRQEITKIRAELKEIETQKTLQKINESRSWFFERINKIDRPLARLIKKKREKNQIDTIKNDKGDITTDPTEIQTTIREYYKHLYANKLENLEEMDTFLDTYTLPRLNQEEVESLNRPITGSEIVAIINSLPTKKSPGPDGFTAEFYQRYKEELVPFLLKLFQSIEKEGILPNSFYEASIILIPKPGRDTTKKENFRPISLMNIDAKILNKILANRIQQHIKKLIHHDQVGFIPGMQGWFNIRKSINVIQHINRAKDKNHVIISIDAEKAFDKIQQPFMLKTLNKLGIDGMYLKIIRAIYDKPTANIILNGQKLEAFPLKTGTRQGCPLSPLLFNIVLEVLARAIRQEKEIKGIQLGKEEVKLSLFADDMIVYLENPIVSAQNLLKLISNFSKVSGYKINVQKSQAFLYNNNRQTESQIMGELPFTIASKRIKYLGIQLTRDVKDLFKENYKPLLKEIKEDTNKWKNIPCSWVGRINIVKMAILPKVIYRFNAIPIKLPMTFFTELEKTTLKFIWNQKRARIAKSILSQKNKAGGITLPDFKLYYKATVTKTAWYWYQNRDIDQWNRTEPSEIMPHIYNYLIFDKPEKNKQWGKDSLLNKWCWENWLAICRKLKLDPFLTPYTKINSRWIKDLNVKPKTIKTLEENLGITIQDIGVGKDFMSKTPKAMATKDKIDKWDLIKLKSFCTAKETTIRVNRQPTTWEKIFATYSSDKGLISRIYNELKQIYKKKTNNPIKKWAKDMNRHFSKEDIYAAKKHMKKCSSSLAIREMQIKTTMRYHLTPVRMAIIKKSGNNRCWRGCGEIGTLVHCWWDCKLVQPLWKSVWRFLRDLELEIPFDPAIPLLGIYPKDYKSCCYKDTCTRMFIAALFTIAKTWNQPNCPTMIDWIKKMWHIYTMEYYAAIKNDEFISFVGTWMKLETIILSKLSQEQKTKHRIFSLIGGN

SMILES: Nc1ccn([C@H]2C[C@H](O)[C@](CO)(CCl)O2)c(=O)n1 [Compound 2, 4-amino-1-((2R,4S,5R)-5-(chloromethyl)-4-hydroxy-5-(hydroxymethyl)tetrahydrofuran-2-yl)pyrimidin-2(1H)-one]
- change in interferon-stimulated gene (ISG) response (FIG. 2A) ([1]; compound p.o. 0.6, 2.0, 6.0 mg/kg daily Day 0 to Day 4, IFIT2 v. GAPDH): change in ISG response
- change in interferon-stimulated gene (ISG) response (FIGS. 2B and 2C) ([1]; compound p.o. 1, 10, 100 mg/kg daily, kidneys, IRF7 and MX1): change in the ISG response
- IC50 [2]: ≤ 50 nM
